The structures appear in SMILES notation.

The text below walks through data of patent US20050288280A1, “Meloxicam in veterinary medicine” (Boehringer Ingelheim Vetmedica GmbH, priority 2004, published 2005).

One assay has as its system dairy cows. The conditions noted are these: administered intramammarily in dairy cows; cited from earlier work.
In assay [1] the test system is dairy cows with clinical mild or moderate mastitis. Put plainly: Clinical field study: response thresholds to mechanical stimuli (hypersensitivity) in dairy cows with clinical mastitis. Format: in vivo. The conditions noted are these: adjunct to intramammary cefquinome, hind limbs, 6-8 examinations over 45 days, meloxicam groups vs antibiotics alone P<0.001. The procedure:
Therefore, as already mentioned, dairy cows were studied to assess pain associated with moderate or mild mastitis. Based on the abovementioned study directed to the newly established method for the measurement of pain in food producing animals, a clinical field study was used to investigate, besides painful chronic conditions in cows with mild and moderate mastitis, the analgesic efficacy and long duration of action of meloxicam. In such clinical field study, meloxicam was administered only once as adjunct to intramammary antibiotic therapy and was compared to a second group where animals received re-treatments with meloxicam after 3 and 6 days. A third group received the antibiotic stand alone therapy. The distance between the hocks was measured as a proxy indicator of altered cow stance. Response thresholds to mechanical stimuli were measured on each hind limb using a modification of the method described by Nolan and others (A. Nolan, A. Livingston, R. Morris, and A. Waterman, Techniques for comparison of thermal and mechanical nociceptive stimuli in the sheep, J. Pharmacol. Methods 1987, 17, pp. 39-49). […] Response thresholds to mechanical stimuli were measured on each hind limb. […]

For the compound `Cc1c(Nc2ncccc2C(=O)O)cccc1C(F)(F)F` [flunixin meglumine], the “long lasting analgesic activity” value with dairy cows is “did not achieve a long lasting analgesic activity”.
On to `CO/N=C(\C(=O)N[C@@H]1C(=O)N2C(C(=O)[O-])=C(C[n+]3cccc4c3CCCC4)CS[C@H]12)c1csc(N)n1` [antibiotics, cefquinome], for which the “threshold responses to mechanical stimuli (mechanical hyperalgesia)” value in assay [1] was “greater differences”.
